Reference: patent US10544112B2, “Identification of ebsulfur analogues with broad-spectrum antifungal activity” (priority 2017, dated 2020)
Converted amounts (≈) assume the structure as drawn. Like-named read-outs stand apart in the source and are kept apart here.

What was measured:
[1] = test system: Candida krusei ATCC 6258 (strain I); assay: Antifungal MIC determination (CLSI M27-A3, 96-well); assay type: cell-based; conditions: strain I; compounds 1-4n and AmB; 48 h, RPMI 1640
Protocol: (§1) Fungal MIC determination experiments were performed using untreated 96-well plates (Corning). Cells were counted either by using a hemocytometer (Hausser Scientific, Horsham, Pa., USA) or by measuring optical density at attenuance of 600 nm (OD600) by using a Genesys 20 spectrophotometer (Thermo Scientific, Waltham, Mass., USA). Spectrophotometric and colorimetric measurements in 96-well plates were performed using a SpectraMax M5 spectrometer (Molecular Devices, Sunnyvale, Calif., USA).
(§2) Yeast strains Candida albicans ATCC 10231 (strain A), C. albicans ATCC 64124 (strain B), and C. albicans ATCC MYA-2876(S) (strain C) were kindly provided by Dr. Jon Y. Takemoto (Utah State University, Logan, UT, USA). C. albicans ATCC MYA-90819(R) (strain D), C. albicans ATCC MYA-2310(S) (strain E), C. albicans ATCC 1237(R) (strain F), C. albicans ATCC MYA-1003(R) (strain G), Candida glabrata ATCC 2001 (strain H), Candida krusei ATCC 6258 (strain I), and Candida parapsilosis ATCC 22019 (strain J) were obtained from the American Type Culture Collection (ATCC, Manassas, Va., USA). The (S) and (R) indicate that ATCC reports these strains to be susceptible (S) and resistant (R) to ITC and FLC. The filamentous fungal strains Aspergillus flavus ATCC MYA-3631 (strain K), and Aspergillus terreus ATCC MYA-3633 (strain M) were also obtained from the American Type Culture Collection (ATCC, Manassas, Va., USA). Aspergillus nidulans ATCC 38163 (strain L) was kindly provided by Dr. Jon S. Thorson (University of Kentucky, Lexington, Ky., USA), respectively. Yeast strains were cultured at 35° C. Filamentous fungal strains were cultured at 25° C. and the spores were harvested. All fungal strains were cultured in RPMI 1640 medium (catalog # R6504, Sigma-Aldrich Chemical Co., St. Louis, Mo.) buffered to pH 7.0 with 0.165 M morpholinepropanesulfonic acid (MOPS) buffer (Sigma-Aldrich Chemical Co.).
(§3) The MIC values against fungal strains were determined based on a previously published protocol. MIC values for ebsulfur (2a) analogues against fungal cells were evaluated in 96-well plates as described in the CLSI document M27-A3 with minor modifications. […] Therefore, potato dextrose broth (PDB) was used to grow the yeast inocula of all strains tested, which were later diluted in RPMI 1640 medium to perform determination of MIC values. […] The tested compounds (10 mg/mL) were diluted to the working stocks (500 μg/mL) by addition of DMSO. Two-fold serial dilution of the working stocks was prepared by addition of RPMI 1640 medium (100 μL) and cell suspension (100 μL) to 96-well microtiter plate to achieve final drug and inoculum concentrations ranging from 12.5-0.02 μg/mL and 5×10^3 CFU/mL, respectively. Plates were incubated for 48 h at 35° C. […]

[2] = test system: Candida glabrata ATCC 2001 (strain H); assay: as above; assay type: cell-based; conditions: strain H; compounds 1-4n and AmB; 48 h, RPMI 1640
Protocol: as §1, §2, §3

[3] = test system: Candida parapsilosis ATCC 22019 (strain J); assay: as above; assay type: cell-based; conditions: strain J; compounds 1-4n and AmB; 48 h, RPMI 1640
Protocol: as §1, §2, §3

[4] = test system: Candida albicans ATCC 10231 (strain A); assay: as above; assay type: cell-based; conditions: strain A; compounds 1-4n and AmB; 48 h, RPMI 1640
Protocol: as §1, §2, §3

[5] = test system: Aspergillus flavus ATCC MYA-3631 (strain K); assay: Antifungal MIC determination, filamentous fungi spores; assay type: cell-based; conditions: all compounds
Protocol: as §1, §2
(§4) The MIC values against fungal strains were determined based on a previously published protocol. MIC values for ebsulfur (2a) analogues against fungal cells were evaluated in 96-well plates as described in the CLSI document M27-A3 with minor modifications. […] Therefore, potato dextrose broth (PDB) was used to grow the yeast inocula of all strains tested, which were later diluted in RPMI 1640 medium to perform determination of MIC values. […] The tested compounds (10 mg/mL) were diluted to the working stocks (500 μg/mL) by addition of DMSO. Two-fold serial dilution of the working stocks was prepared by addition of RPMI 1640 medium (100 μL) and cell suspension (100 μL) to 96-well microtiter plate to achieve final drug and inoculum concentrations ranging from 12.5-0.02 μg/mL and 5×10^3 CFU/mL, respectively. Plates were incubated for 48 h at 35° C.
(§5) MIC assays for the spore-forming filamentous fungi, such as strain A. flavus ATCC MYA-3631 (strain K), were performed in a similar fashion. The filamentous fungal strains were first cultured at 25° C. on potato dextrose agar (PDA) plates for 3-5 days or until confluent. Spores were collected by washing the surface of the agar plates with dd H2O (5 mL) and then isolated the spores by gravity filtration (the spores are H2O soluble). […] Researchers working with spores should wear a facemask to prevent spore inhalation.

[6] = test system: Aspergillus terreus ATCC MYA-3633 (strain M); assay: as above; assay type: cell-based; conditions: strain M; all compounds; spores
Protocol: as §1, §2, §4, §5

[7] = test system: C. albicans ATCC MYA-1237(R) (strain F); assay: microbe, parasite or virus in culture; assay type: cell-based, Candida albicans; conditions: strain F; compounds 1-4n and AmB; 48 h, RPMI 1640
Protocol: as §1, §2, §3

[8] = test system: C. albicans ATCC MYA-1003(R) (strain G); assay: microbe, parasite or virus in culture; assay type: cell-based, Candida albicans; conditions: strain G; compounds 1-4n and AmB; 48 h, RPMI 1640
Protocol: as §1, §2, §3

[9] = test system: C. albicans ATCC 64124 (strain B); assay: microbe, parasite or virus in culture; assay type: cell-based, Candida albicans; conditions: strain B; compounds 1-4n and AmB; 48 h, RPMI 1640
Protocol: as §1, §2, §3

[10] = test system: C. albicans ATCC 90819(R) (strain D); assay: microbe, parasite or virus in culture; assay type: cell-based, Candida albicans; conditions: strain D; compounds 1-4n and AmB; 48 h, RPMI 1640
Protocol: as §1, §2, §3

[11] = test system: Candida and Aspergillus strains; assay: Antifungal MIC, summary over whole panel of fungal strains; assay type: cell-based
Protocol: as §1, §2, §3

[12] = test system: C. albicans ATCC 64124 (strain B); assay type: cell-based, Candida albicans
Protocol: The efficiency of the compounds to kill C. albicans ATCC 64124 (strain B) was monitored using a previously published protocol. The cell suspensions were prepared to achieve an inoculum of approximately 1-4×10^5 CFU/mL in RPMI 1640 medium at 35° C. […] After fungal cell addition, at 0, 3, 6, 9, 12, and 24 h, the tubes were vortexed and 100 μL aliquots were removed from each solution, spread onto PDA plates, and incubated at 35° C. Colony counts were determined after 24 h of incubation. The experiments were performed in duplicate (FIG. 2).
Time-kill assays with ebsulfur (2a) and analogue 3a (FIG. 2) were performed to determine the rate of fungicidal activity of the compounds if the invention.

[13] = test system: C. albicans ATCC MYA-2310(S) (strain E); assay: Antifungal MIC determination (CLSI M27-A3, 96-well); assay type: cell-based, Candida albicans; conditions: strain E; compounds 1-4n and AmB; 48 h, RPMI 1640
Protocol: as §1, §2, §3

[14] = test system: C. albicans ATCC MYA-2876(S) (strain C); assay: as above; assay type: cell-based, Candida albicans; conditions: strain C; compounds 1-4n and AmB; 48 h, RPMI 1640
Protocol: as §1, §2, §3

[15] = test system: Aspergillus nidulans ATCC 38163 (strain L); assay: Antifungal MIC determination, filamentous fungi spores; assay type: cell-based; conditions: strain L; spores
Protocol: as §1, §2, §4, §5

[16] = test system: C. albicans ATCC 10231 (strain A); assay: ROS production assay (DCFH-DA); assay type: cell-based, Candida albicans; conditions: 1× and 2× MIC (H2O2 1 mM), 1-h treatment
Protocol: ROS production assay was performed as previously described with minor modifications. […] Once entering the cells, the DCFH-DA probe is first hydrolyzed to the non-fluorescent 2′,7′-dichlorodihydrofluorescein (DCFH) by cellular esterases. […] A colony of C. albicans ATCC 10231 (strain A) was used to inoculate 5 mL of PDB in a Falcon tube and grown overnight at 35° C. at 200 rpm.
Thus, whether the compounds of the invention would also induce ROS against C. albicans was studied. […] 2′,7′-dichlorodihydrofluorescin diacetate (DCFH-DA) was then used to detect and visualize ROS production (FIG. 5). As a positive control, cells were treated with H2O2, which is an inducer of hydroxyl radical formation.

Candida strains (A-J) = assay: Antifungal MIC, summary over panel of Candida strains; assay type: cell-based; conditions: Candida strains A-J
Protocol: as §1, §2, §3

| MIC values, range over the panel of fungal strains ([11]; Candida and Aspergillus strains, controls, tested herein or previously published) [µg/mL] | SMILES | MIC-0 [1] [µg/mL] | MIC-0 [2] [µg/mL] | MIC-0 [3] [µg/mL] | MIC-0 [4] [µg/mL] | MIC-0 [5] [µg/mL] | MIC-0 [6] [µg/mL] | MIC-0 [7] [µg/mL] | MIC-0 [8] [µg/mL] | MIC-0 [9] [µg/mL] | MIC-0 [10] [µg/mL] | time from which completely fungicidal ([12]; 2× MIC) [h] | MIC-0 [13] [µg/mL] | MIC-0 [14] [µg/mL] | MIC-0 [15] [µg/mL] | ROS induction (DCFH-DA fluorescence) [16] | fungicidal or fungistatic effect ([12]; 1× MIC) | fungicidal or fungistatic effect ([12]; 2× MIC) | MIC values against Candida strains, range (Candida strains (A-J)) [µg/mL] | antifungal activity after oxidizing the sulfur atom to sulfoxide ([11]; oxidized analogues) |
| --- | --- | --- | --- | --- | --- | --- | --- | --- | --- | --- | --- | --- | --- | --- | --- | --- | --- | --- | --- | --- |
| 0.98 to 15.6 | C[C@@H]1[C@H](O)[C@@H](C)/C=C/C=C/C=C/C=C/C=C/C=C/C=C/[C@H](O[C@@H]2O[C@H](C)[C@@H](O)[C@H](N)[C@@H]2O)C[C@@H]2O[C@](O)(C[C@@H](O)C[C@@H](O)[C@H](O)CC[C@@H](O)C[C@@H](O)CC(=O)O[C@H]1C)C[C@H](O)[C@H]2C(=O)O [AmB, amphotericin B, reference compound] | 3.9 (≈ 4.22 µM) | 1.95 (≈ 2.11 µM) | 1.95 (≈ 2.11 µM) | 3.9 (≈ 4.22 µM) | 15.6 (≈ 16.9 µM) | 3.9 (≈ 4.22 µM) | 3.9 (≈ 4.22 µM) | 3.9 (≈ 4.22 µM) | 3.9 (≈ 4.22 µM) | 0.98 (≈ 1.06 µM) | 6 |  |  |  |  |  |  |  |  |
|  | O=c1c2ccccc2sn1-c1ccccc1 [Compound 2a, ebsulfur] | 3.13 (≈ 13.8 µM) | 6.25 (≈ 27.5 µM) | 12.5 (≈ 55 µM) | 12.5 (≈ 55 µM) | 6.25 (≈ 27.5 µM) | 6.25 (≈ 27.5 µM) | >12.5 | >12.5 |  | 3.13 (≈ 13.8 µM) |  | 6.25 (≈ 27.5 µM) | 12.5 (≈ 55 µM) | 6.25 (≈ 27.5 µM) | highly fluorescent | fungistatic | fungicidal |  |  |
|  | O=c1c2ccccc2sn1-c1ccc(Cl)cn1 [Compound 2n] | >12.5 | >12.5 | >12.5 | 12.5 (≈ 47.6 µM) | >12.5 | >12.5 | 12.5 (≈ 47.6 µM) | 12.5 (≈ 47.6 µM) | 12.5 (≈ 47.6 µM) | >12.5 |  | 12.5 (≈ 47.6 µM) | 12.5 (≈ 47.6 µM) | >12.5 |  |  |  | > 12.5 |  |
|  | CC(C)CCn1c(=O)c2ccccc2[s+]1[O-] (stereo not shown) [Compound 4f] | >12.5 | >12.5 | >12.5 | >12.5 | >12.5 | >12.5 | >12.5 | >12.5 | >12.5 | >12.5 |  | >12.5 | >12.5 | >12.5 |  |  |  |  | completely abolished |
